Laboratory results published in ChEMBL document CHEMBL3044822, “Carpropamid, a New Fungicide for Rice Blast Control” (1998).

System: Pyricularia oryzae
Assay: Fungicidal activity against Magnaporthe oryzae in 7 days old young rice seedlings compound sprayed 1 day after inoculation assessed as efficacy against blast disease measured as lesion level at 50 ppm measured after 7 days of inoculation
Type: functional

| Structure (SMILES) | Efficacy [%] |
| --- | --- |
| CC[C@]1(C(=O)NC(C)c2ccc(Cl)cc2)[C@H](C)C1(Cl)Cl (mixture of isomers) [CARPROPAMID] | 0 |
| C[C@@H](NC(=O)C1(C)C(C)(C)C1(Cl)Cl)c1ccc(Br)cc1 (stereo in doubt; 17(Rl)) | <5 |
| CC[C@]1(C(=O)N[C@H](C)c2ccc(Cl)cc2)[C@H](C)C1(Cl)Cl [trans-Carpropamid] | 0 |
| CC(NC(=O)C1(C)C(C)(C)C1(Cl)Cl)c1ccc(Br)cc1 (stereo not drawn) | 0 |
| C[C@@H](NC(=O)C1(C)C(C)(C)C1(Cl)Cl)c1ccc(Br)cc1 (stereo in doubt; 17(Rd)) | 0 |
| C[C@H](NC(=O)C1(C)C(C)(C)C1(Cl)Cl)c1ccc(Br)cc1 (stereo in doubt; 17(Sl)) | <20 |

System: Pyricularia oryzae
Assay: Fungicidal activity against Magnaporthe oryzae in 7 days old young rice seedlings compound sprayed 1 day after inoculation assessed as efficacy against blast disease measured as lesion level at 200 ppm measured after 7 days of inoculation
Type: functional

| Structure (SMILES) | Efficacy [%] |
| --- | --- |
| CCOC(=O)C1C(C)(C)C1(Cl)Cl (stereo not drawn) | <5 |
| CC1(C)C(C(N)=O)C1(Cl)Cl (stereo not drawn) | <20 |
| CC1(C)C(C(=O)Nc2ccccc2)C1(Cl)Cl (stereo not drawn) | >40 |
| CC(NC(=O)C1(C)C(C)(C)C1(Cl)Cl)c1ccc(Br)cc1 (stereo not drawn) | 0 |
| CC1(C)C(C(=O)Oc2ccccc2)C1(Cl)Cl (stereo not drawn) | <20 |
| CC1(C)C(CO)C1(Cl)Cl (stereo not drawn) | <5 |
| CNC(=O)C1C(C)(C)C1(Cl)Cl (stereo not drawn) | <40 |
| CC1(C)C(Cl)(Cl)C1(C)C(=O)O (stereo not drawn) | <20 |
| CC(NC(=O)C1(C)C(C)(C)C1(Cl)Cl)c1ccccc1 (stereo not drawn) | <5 |
| CC(NC(=O)C1(C(C)C)CC1(Cl)Cl)c1ccc(Cl)cc1 (stereo not drawn) | 0 |
| CC1(C)C(COC(=O)c2ccccc2)C1(Cl)Cl (stereo not drawn) | <5 |
| CC[C@]1(C(=O)NC(C)c2ccc(Cl)cc2)[C@H](C)C1(Cl)Cl (stereo partly drawn) [CARPROPAMID] | 0 |
| CC(NC(=O)C1(C)C(C)(C)C1(Cl)Cl)c1ccc(Cl)cc1 (stereo not drawn) | 0 |
| CC1(C)C(C(=O)O)C1(Cl)Cl (stereo not drawn) | <5 |
| CC1(C)C(COC(=O)Nc2ccccc2)C1(Cl)Cl (stereo not drawn) | <5 |
| CC1(C)C(C#N)C1(Cl)Cl (stereo not drawn) | <30 |
| CCC1(CC)C(C(=O)O)C1(Cl)Cl (stereo not drawn) | <30 |
